# Test results from patent US20220396565A1 (Hoffmann-La Roche Inc., priority 2020, published 2022).
# Counter-ions that a name gives are not always drawn.
# Test system: Acinetobacter baumannii ATCC17961
# Test: Antimicrobial susceptibility testing: 90% growth inhibitory concentration (IC90) determination, Iso-Sensitest broth
# Type: cell-based
# Conditions: Acinetobacter baumannii, ATCC17961, 90% growth inhibitory concentration, Acinetobacter baumannii ATCC17961, Iso-Sensitest broth; read-out: ATCC 17961 IC90
# Procedure, shortened: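 Growth at OD600 was monitored every 20 min for 16 h at 35±2 °C, with bacteria inoculated at ~5×10^(5) CFU/ml into Iso-Sensitest medium. Compounds were tested as 10-point twofold dilutions (e.g. 10–0.02 μM final). The 90% inhibitory concentration comes from the log-phase growth.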
row,SMILES,IC90
1,"CN(C)C1CN(C(=O)C2CCN(C(=O)c3ccc(NC(=O)c4ncc(-c5ccc(OC(F)F)c(F)c5F)n4C)cc3Cl)CC2)C1 [Example 43, N-[3-chloro-4-[4-[3-(dimethylamino)azetidine-1-carbonyl]piperidine-1-carbonyl]phenyl]-5-[4-(difluoromethoxy)-2,3-difluoro-phenyl]-1-methyl-imidazole-2-carboxamide trifluoioacetate]",0.09 µM
2,"COc1ccc(-c2cnc(C(=O)Nc3ccc(C(=O)N4CCC(C(=O)NC[C@H](C)N)CC4)c(Cl)c3)n2C)c(F)c1F [Example 32, N-[(2S)-2-aminopropyl]-1-[2-chloro-4-[[5-(2,3-difluoro-4-methoxy-phenyl)-1-methyl-imidazole-2-carbonyl]amino]benzoyl] piperidine-4-carboxamide]",0.08 µM
3,"COc1ccc(-c2cnc(C(=O)Nc3ccc(C(=O)N4CCN(C(=O)C[C@H]5CCCN5)CC4)c(Cl)c3)n2C)c(F)c1F [Example 152, N-[3-chloro-4-[4-[2-[(2R)-pyrrolidin-2-yl]acetyl]piperazine-1-carbonyl]phenyl]-5-(2,3-difluoro-4-methoxy-phenyl)-1-methyl-imidazole-2-carboxamide formate]",0.05 µM
4,"COc1ccc(-c2cnc(C(=O)Nc3ccc(C(=O)N4CCN(C(=O)CCCC[C@@H]5SC[C@@H]6NC(=O)N[C@@H]65)CC4)c(Cl)c3)n2C)c(F)c1F [Example 130, N-[4-[4-[5-[(3aS,4S,6aR)-2-oxo-1,3,3a,4,6,6a-hexahydrothieno[3,4-d]imidazol-4-yl]pentanoyl]piperazine-1-carbonyl]-3-chloro-phenyl]-5-(2,3-difluoro-4-methoxy-phenyl)-1-methyl-imidazole-2-carboxamide]",0.26 µM
5,"Cn1c(-c2ccc(OC(F)F)c(F)c2F)cnc1C(=O)Nc1ccc(C(=O)N2CCC(C(=O)N[C@H]3[C@@H]4CNC[C@@H]43)CC2)c(Cl)c1 [Example 61, N-[(1S,5R)-3-azabicyclo[3.1.0]hexan-6-yl]-1-[2-chloro-4-[[5-[4-(difluoromethoxy)-2,3-difluoro-phenyl]-1-methyl-imidazole-2-carbonyl]amino]benzoyl] piperidine-4-carboxamide formate]",0.06 µM

# Second part, the compound after the results:
row,IC90,SMILES
1,1.12 µM,"COc1cc(-c2cnc(C(=O)Nc3ccc(C(=O)N4CCN(C(=O)C5CCNCC5)CC4)c(Cl)c3)n2C)cc(F)c1F [Example 258, N-[3-chloro-4-[4-(piperidine-4-carbonyl)piperazine-1-carbonyl]phenyl]-5-(3,4-difluoro-5-methoxy-phenyl)-1-methyl-imidazole-2-carboxamide formate]"
2,0.05 µM,"COc1ccc(-c2cnc(C(=O)Nc3ccc(C(=O)N4CCN(C(=O)C[C@@H]5CCNC5)CC4)c(Cl)c3)n2C)c(Cl)c1F [Example 167, 5-(2-chloro-3-fluoro-4-methoxy-phenyl)-N-[3-chloro-4-[4-[2-[(3S)-pyrrolidin-3-yl]acetyl]piperazine-1-carbonyl]phenyl]-1-methyl-imidazole-2-carboxamide formate]"
3,0.14 µM,"COc1ccc(-c2cnc(C(=O)Nc3ccc(C(=O)N4CC(NC(=O)CN(C)C)C4)c(Cl)c3)n2C)c(F)c1F [Example 189, N-[3-chloro-4-[3-[[2-(dimethylamino)acetyl]amino]azetidine-1-carbonyl]phenyl]-5-(2,3-difluoro-4-methoxy-phenyl)-1-methyl-imidazole-2-carboxamide formate]"
4,0.1 µM,"COc1ccc(-c2cnc(C(=O)Nc3ccc(C(=O)N4CCN(C(=O)[C@@H]5CCNC[C@H]5O)CC4)c(Cl)c3)n2C)c(F)c1F [Example 230, N-[3-chloro-4-[4-[(3S,4R)-3-hydroxypiperidine-4-carbonyl]piperazine-1-carbonyl]phenyl]-5-(2,3-difluoro-4-methoxy-phenyl)-1-methyl-imidazole-2-carboxamide formate]"
